Biological target: SARS-CoV-2 Delta RBD binding to Vero E6 cells (Severe acute respiratory syndrome coronavirus 2, UniProt P0DTC2, L452R/T478K)
Assay type: cell-based

## NCCCCCOC1OC(COS(=O)(=O)O)C(OC2OC(C(=O)O)C(OC3OC(COS(=O)(=O)O)C(OC4OC(C(=O)O)C(OC5OC(COS(=O)(=O)O)C(OC6OC(C(=O)O)C(O)C(O)C6O)C(O)C5NS(=O)(=O)O)C(O)C4OS(=O)(=O)O)C(O)C3NS(=O)(=O)O)C(O)C2OS(=O)(=O)O)C(O)C1NS(=O)(=O)O (stereo not shown) [Compound 1, GlcA-GlcNS6S-IdoA2S-GlcNS6S-IdoA2S-GlcNS6S]
  Inhibition of delta RBD binding to Vero E6 cells: does not display inhibition
